From the Kinase Knowledgebase extract (Sharma et al. 2016)
pIC50: −log10 of the molar value.

The compounds below were run against CDK2 (human) (UniProt P24941) (assay: Cell-Based Assay). Conditions: mda-mb-435.

| SMILES | pIC50 |
| --- | --- |
| CCC(O)C#Cc1c(F)ccc2c1/C(=C/c1[nH]cnc1C)C(=O)N2 (configuration not stated) | > 5.46 |
| COC(=O)NCC#Cc1c(F)ccc2c1/C(=C/c1[nH]cnc1C)C(=O)N2 | > 5.46 |
| Cc1nc[nH]c1/C=C1\C(=O)Nc2ccc(F)c(C#CCC(C)O)c21 (configuration not stated) | > 5.46 |
| CCC(O)C#Cc1c([N+](=O)[O-])ccc2c1/C(=C/c1[nH]cnc1C)C(=O)N2 (configuration not stated) | > 5.46 |
| CCOC(=O)C(CC#Cc1c(F)ccc2c1/C(=C/c1[nH]cnc1C)C(=O)N2)NC(C)=O (configuration not stated) | > 5.46 |

Same assay, conditions: sw480

| SMILES | pIC50 |
| --- | --- |
| CCC(O)C#Cc1c(F)ccc2c1/C(=C/c1[nH]cnc1C)C(=O)N2 (configuration not stated) | > 6.00 |
| CNCC#Cc1c(F)ccc2c1/C(=C/c1[nH]cnc1C)C(=O)N2 | > 6.00 |
| CCC(N)(C#Cc1c(F)ccc2c1/C(=C/c1[nH]cnc1C)C(=O)N2)CC | > 6.00 |
| CCC(O)C#Cc1c([N+](=O)[O-])ccc2c1/C(=C/c1[nH]cnc1C)C(=O)N2 (configuration not stated) | > 6.00 |

What follows are compounds tested against CDK2 (UniProt P24941) (assay: Enzyme Assay). Conditions: not given.

| SMILES | pIC50 |
| --- | --- |
| COc1cc[nH]c1/C=C1\C(=O)Nc2ccc(NC(=O)c3ccncc3)c(C#CCO)c21 | > 5.40 |
| CCC(O)C#Cc1c(F)ccc2c1/C(=C/c1[nH]cnc1C)C(=O)N2 (configuration not stated) | > 5.40 |
| COc1cc[nH]c1/C=C1\C(=O)Nc2ccc(N)c(C#CCO)c21 | > 5.40 |
| Cc1nc[nH]c1/C=C1\C(=O)Nc2ccc(F)c(C#CCNC(N)=O)c21 | > 5.40 |
| Cc1nc[nH]c1/C=C1\C(=O)Nc2ccc(F)c(C#CC(C)(C)N)c21 | > 5.40 |
| CCC(C)(O)C#Cc1cccc2c1/C(=C/c1[nH]ccc1OC)C(=O)N2 (configuration not stated) | > 5.40 |
| CCC(O)C#Cc1cccc2c1/C(=C/c1[nH]ccc1OC)C(=O)N2 (configuration not stated) | > 5.40 |
| COc1cc[nH]c1/C=C1\C(=O)Nc2cccc(C#CC3(O)CCCCC3)c21 | > 5.40 |
| COCC#Cc1cccc2c1/C(=C/c1[nH]ccc1OC)C(=O)N2 | > 5.40 |
| COc1cc[nH]c1/C=C1\C(=O)Nc2cccc(C#CCO)c21 | > 5.40 |
| COC(=O)CCC#Cc1c(N)ccc2c1/C(=C/c1[nH]ccc1OC)C(=O)N2 | > 5.40 |
| COc1cc[nH]c1/C=C1\C(=O)Nc2cccc(C#CCCCC(N)=O)c21 | > 5.40 |
| COc1cc[nH]c1/C=C1\C(=O)Nc2cccc(C#CCC(C(=O)O)C(=O)O)c21 | > 5.40 |
| CNCC#Cc1c(F)ccc2c1/C(=C/c1[nH]cnc1C)C(=O)N2 | > 5.40 |
| COc1cc[nH]c1/C=C1\C(=O)Nc2cccc(C#CC(C)(O)CC(C)C)c21 (configuration not stated) | > 5.40 |
| CCN(CC)CC#Cc1c(F)ccc2c1/C(=C/c1[nH]cnc1C)C(=O)N2 | > 5.40 |
| COc1cc[nH]c1/C=C1\C(=O)Nc2cccc(C#CCCC(=O)O)c21 | > 5.40 |
| COc1cc[nH]c1/C=C1\C(=O)Nc2cccc(C#CCNCc3ccccc3)c21 | > 5.40 |
| Cc1nc[nH]c1/C=C1\C(=O)Nc2ccc(F)c(C#CCN3CCOCC3)c21 | > 5.40 |
| COc1cc[nH]c1/C=C1\C(=O)Nc2cccc(C#CCOC(N)=O)c21 | > 5.40 |
| CCCC(C)(O)C#Cc1cccc2c1/C(=C/c1[nH]ccc1OC)C(=O)N2 (configuration not stated) | > 5.40 |
| COc1cc[nH]c1/C=C1\C(=O)Nc2cccc(C#CCCC(N)=O)c21 | > 5.40 |
| Cc1nc[nH]c1/C=C1\C(=O)Nc2ccc(F)c(C#CCC(C)O)c21 (configuration not stated) | > 5.40 |

| SMILES | pIC50 |
| --- | --- |
| COC(=O)CCC#Cc1cccc2c1/C(=C/c1[nH]ccc1OC)C(=O)N2 | > 5.40 |
| COc1cc[nH]c1/C=C1\C(=O)Nc2cccc(C#CCCO)c21 | > 5.40 |
| CCCCC[C@H](O)C#Cc1cccc2c1/C(=C/c1[nH]ccc1OC)C(=O)N2 | > 5.40 |
| COc1cc[nH]c1/C=C1\C(=O)Nc2cccc(C#CCCCO)c21 | > 5.40 |
| COc1cc[nH]c1/C=C1\C(=O)Nc2cccc(C#CC(C)(C)O)c21 | > 5.40 |
| COC(=O)NCC#Cc1cccc2c1/C(=C/c1[nH]ccc1OC)C(=O)N2 | > 5.40 |
| CNC(=O)OCC#Cc1cccc2c1/C(=C/c1[nH]ccc1OC)C(=O)N2 | > 5.40 |
| COC(=O)CCCC#Cc1cccc2c1/C(=C/c1[nH]ccc1OC)C(=O)N2 | > 5.40 |
| CCCCCC(O)C#Cc1cccc2c1/C(=C/c1[nH]ccc1OC)C(=O)N2 (configuration not stated) | > 5.40 |
| CNCC#Cc1cccc2c1/C(=C/c1[nH]ccc1OC)C(=O)N2 | > 5.40 |
| COc1cc[nH]c1/C=C1\C(=O)Nc2cccc(C#CCN)c21 | > 5.40 |
| COc1cc[nH]c1/C=C1\C(=O)Nc2cccc(C#CCCCCO)c21 | > 5.40 |
| COc1cc[nH]c1/C=C1\C(=O)Nc2cccc(C#CCCCC(=O)O)c21 | > 5.40 |
| COc1cc[nH]c1/C=C1\C(=O)Nc2cccc(C#CC3(O)CCCC3)c21 | > 5.40 |
| Cc1nc[nH]c1/C=C1\C(=O)Nc2ccc(F)c(C#CCN(C)C)c21 | > 5.40 |
| Cc1nc[nH]c1/C=C1\C(=O)Nc2ccc(F)c(C#CCOC(N)=O)c21 | > 5.40 |
| CCC(O)C#Cc1c([N+](=O)[O-])ccc2c1/C(=C/c1[nH]cnc1C)C(=O)N2 (configuration not stated) | > 5.40 |
| C#CCOCCO | > 5.40 |
| COC(=O)C(CC#Cc1cccc2c1/C(=C/c1[nH]ccc1OC)C(=O)N2)C(=O)OC | > 5.40 |
| COc1cc[nH]c1/C=C1\C(=O)Nc2ccc(NC(=O)Cc3cccs3)c(C#CCCC(=O)O)c21 | > 5.40 |
| CCOC(=O)C(CC#Cc1c(F)ccc2c1/C(=C/c1[nH]cnc1C)C(=O)N2)NC(C)=O (configuration not stated) | > 5.40 |
| Cc1nc[nH]c1/C=C1\C(=O)Nc2ccc(F)c(C#CCO)c21 | > 5.40 |

Same assay, conditions: concentration not given here

| SMILES | inhibition [%] |
| --- | --- |
| COC(=O)CCC#Cc1c([N+](=O)[O-])ccc2c1/C(=C/c1[nH]ccc1OC)C(=O)N2 | > 60 |
| COC(=O)NCC#Cc1c(F)ccc2c1/C(=C/c1[nH]cnc1C)C(=O)N2 | > 90 |
| COc1cc[nH]c1/C=C1\C(=O)Nc2ccc([N+](=O)[O-])c(C#CCO)c21 | > 90 |
